Assay results reported in patent US9125879B2, “Composition containing a quinoa extract for dermatological use” (LABORATOIRES EXPANSCIENCE, priority 2006, dated 2015).

Legend:
Assay type in all cases: cell-based
collagen III = assay: Genic expression of collagen III in fibroblasts (real time quantitative PCR); settings: 5 ng/mL, 48 hours
From the text: (§1) b. Study of the Effect of Quinoa Peptides on the Expression of Genes Coding for Collagen I and Collagen III and Elastin by RT-PCR
(§2) b.1. Principle of Real Time Quantitative PCR:
(§3) Real time quantitative PCR or QRT-PCR (Quantitative Real Time Polymerase Chain Reaction) is a molecular biology method, which allows specific and quantitative measurement of the expression of genes of interest by amplification. Quantification is based on tracking the amplification of genes in real time by using as a reporter system, SYBR Green technology: a molecule with fluorescent properties which is inserted inside the double strand DNA. PCR takes place in a succession of temperature cycles according to 3 steps: • Denaturation: separation of 2 DNA strands. • Hybridization: recognition of a DNA sequence corresponding to a target gene by means of specific primers. • Extension: of the sequence of interest by a action of a polymerase.
(§4) DNA amounts are compared in the exponential part, moment during which the increase in the DNA amount is proportional to the initial matrix amount.
(§5) On D0, the fibroblasts were sown on 6-well plates in RPMI medium added with 10% SVF. On D1, the fibroblasts were treated with TGF β1 at 5 ng/mL or the quinoa oil concentrate with 0.005% and 0.01% DM in RPMI medium with 1% SVF for 48 hours. At the end of the treatment of the cells, the total […] were extracted (extraction kit RNeasy kit MiniKit; Qiagen) and then assayed quantitatively in minichips by means of an Experion system (Experion RNA StdSens kit; Biorad). Total RNAs are then back-transcribed into cDNA (iScript cDNA Synthesis kit; Biorad). Finally the neo-synthesized cDNAs relative to the genes of interest (collagen I, collagen III, elastin) or to reference genes (HPRT, GAPDH, YWHAZ, beta actin=normalizers) were selectively amplified with real time PCR (iQ5, Biorad) by using specific primers of the target sequences.
(§6) The expression of the reference genes is analyzed in the same samples as those for which expression of the genes of interest is evaluated in order to normalize the results and to make sure that they are actually the results of the effect of the treatment by quinoa oil concentrate.
(§7) b.3. Analysis of the Results:
(§8) The variation in the number of copies of the genes of interest during the treatment is then calculated according to the following formula: DDCt=control DCt−treatment DCt.
(§9) Finally, the relative amount or the expression level of the genes of interest, normalized by the expression level of the reference genes in the untreated and treated samples is obtained by the formula: QR=2DDCt

β-3 chain of laminin 5 = assay: Genic expression of the β-3 chain of laminin 5 in keratinocytes (RT-PCR); settings: 5 ng/ml, 48 hours
Experimental: (§10) a. Study of the Effect of Quinoa Peptides on the Expression of Genes Coding for Laminin 5 and PPM-9 by RT-PCR • Principle of real time quantitative PCR: cf. Example 4 • Procedure:
(§11) On day 0, the keratinocytes were sown in 24-well plates in a KGM-2 medium. On D1, the cells were treated with TGFβ1 at 5 ng/mL or quinoa peptides with 0.05 and 0.1% DM for 48 hours. At the end of the treatment of the cells, the total RNAs were extracted (RNeasy MiniKit extraction kit; Qiagen) and then quantitatively assayed in minichips by means of the Experion system (Experion RNA StdSens kit; Biorad). The total RNAs were then backtranscribed into cDNA (iScript cDNA Synthesis kit; Biorad). Finally, the neo-synthesized cDNAs relative to the gene of interest (genes coding for the 3 chains making up laminin 5: […] and MMP-9) or to the reference genes (HPRT, GAPDH, YWHEZ, beta actin=normalizers) were selectively amplified by real time PCR (iQ5, Biorad) by using specific primers of the target sequences.

MMP-9 [1] = assay: Genic expression of MMP-9 in keratinocytes (RT-PCR); settings: 5 ng/ml, 48 hours
Experimental: as §10, §11

elastin = assay: Genic expression of elastin in fibroblasts (real time quantitative PCR); settings: 5 ng/mL, 48 hours
From the text: as §1, §2, §3, §4, §5, §6, §7, §8, §9

α-3 chain of laminin 5 = assay: Genic expression of the α-3 chain of laminin 5 in keratinocytes (RT-PCR); settings: 5 ng/ml, 48 hours
Experimental: as §10, §11

KGF = assay: Dosage of KGF secreted by fibroblasts (ELISA); settings: for % A (increase) / Amount of KGF: 5 ng/ml, supernatants of fibroblasts
Experimental: e. Dosage of KGF Secreted by Fibroblasts
The fibroblasts were sown in a 24-well plate in RPMI at 1% SVF; after 24 hours of incubation at 37° C., with […], the cells were treated with quinoa peptides with 0.05% and 0.01% DM. IL1α (Sigma) at 100 ng/mL was used as a positive control. After 24 and 48 hours of treatment, the amount of KGF salted out by the fibroblasts was assayed with an ELISA kit (R&D Systems), according to the procedure recommended by the supplier. In parallel, the amount of living cells per well was determined by a colorimetric neutral red test: optical density OD, proportional to the amount of living cells, is read at 570 nm. In parallel, the amount of living cells per well was determined by an MTT colorimetric test: optical density OD, proportional to the amount of living cells, is read at 570 nm.
The amount of KGF is expressed by the living cells: pg/mL/OD570 MTT.

MMP-9 [2] = assay: Dosage of MMP-9 protein secreted by keratinocytes (ELISA); settings: 5 ng/ml, supernatants of keratinocytes
Experimental: d. Dosage of MMP-9 Secreted by Keratinocytes.
The keratinocytes were sown in 24-well plates; after 24 hours in incubation at 37° C., with 5% CO2, the cells were treated with quinoa peptides with 0.05% and 0.01% DM. TGFβ tested at 5 ng/mL was used as a positive control. After 48 and 72 hours of treatment, the amount of MMP-9 secreted by the cells was assayed in the culture supernatant by means of an ELISA kit (R&D Systems), according to the procedure recommended by the supplier. In parallel, the amount of living cells per well was determined by a colorimetric neutral red test: optical density OD, proportional to the amount of living cells, is read at 570 nm.
The amount of MMP-9 is expressed in living cells: (ng/mL)/OD570 (optical density at 570 nm) MTT.

collagen I = assay: Genic expression of collagen I in fibroblasts (real time quantitative PCR); settings: 5 ng/mL, 48 hours
From the text: as §1, §2, §3, §4, §5, §6, §7, §8, §9

γ-2 chain of laminin 5 = assay: Genic expression of the γ-2 chain of laminin 5 in keratinocytes (RT-PCR); settings: 5 ng/ml, 48 hours
Experimental: as §10, §11

keratinocytes = assay: Proliferation of keratinocytes by the MTT method
Experimental: c. Study of the Proliferation of Keratinocytes by the MTT Method
On D0, the keratinocytes are sown in a KGM2 medium day1, the cells are treated with trans-retinoic acid (ATRA) at 1 μM or quinoa peptides with 0.05% and 0.1% DM for 24 and 48 hours. At the end of the treatment, cell viability is quantified by an MTT test: after 3 hours of contact with MTT, the formed formazan crystals are solubilized by DMSO and the optical density, proportional to the amount of metabolically active cells therefore live cells, is read at 570 nm against the blank (wells without any cells).

TGFβ: growth factor used as a positive control at 5 ng/mL
% of induction (collagen III): 427%
Mean dCt (collagen III): 2.51
QR (collagen III): 5.27
ddCt (collagen III): 2.4
% of induction (β-3 chain of laminin 5): 420%
Mean dCt (β-3 chain of laminin 5): −0.944
QR (β-3 chain of laminin 5): 5.20
ddCt (β-3 chain of laminin 5): 2.38
QR (β-3 chain of laminin 5; listed as TGF-β1): ~5
% of induction (MMP-9 [1]): 807%
Mean dCt (MMP-9 [1]): 3.07
QR (MMP-9 [1]): 8
ddCt (MMP-9 [1]): 3.01
% of induction (elastin): 435%
QR (elastin): 5.35
dCt (elastin): 2.16
ddCt (elastin): 2.4
% of induction (α-3 chain of laminin 5): 1193%
Mean dCt (α-3 chain of laminin 5): −0.944
QR (α-3 chain of laminin 5): 12.93
ddCt (α-3 chain of laminin 5): 3.69
QR (α-3 chain of laminin 5; listed as TGF-β1): ~12
% A (increase) (KGF; treatment 24 h): 431%
Amount of KGF (KGF; treatment 24 h): 147.886 pg/mL/OD neutral red
% A (increase) (KGF; treatment 48 h): 336%
Amount of KGF (KGF; treatment 48 h): 352.387 pg/mL/OD neutral red
% A (increase) (MMP-9 [2]; treatment 48 h): 372%
Amount of MMP-9 (MMP-9 [2]; treatment 48 h): 11.604 ng/mL/OD neutral red
% A (increase) (MMP-9 [2]; treatment 72 h): 568%
Amount of MMP-9 (MMP-9 [2]; treatment 72 h): 14.746 ng/mL/OD neutral red
% of induction (collagen I): 87%
Mean dCt (collagen I): −3.2
QR (collagen I): 1.87
ddCt (collagen I): 0.9
% of induction (γ-2 chain of laminin 5): 1676%
Mean dCt (γ-2 chain of laminin 5): −1.925
QR (γ-2 chain of laminin 5): 17.76
ddCt (γ-2 chain of laminin 5): 4.15
QR (γ-2 chain of laminin 5; listed as TGF-β1): ~17

CC1=C(/C=C/C(C)=C/C=C/C(C)=C/C(=O)O)C(C)(C)CCC1 [ATRA, trans-retinoic acid]
Mean OD570 (MTT) (keratinocytes; 1 μM): 1.361
% of proliferation (keratinocytes; 1 μM, negative control = 100): 136%
proliferation rate induced (keratinocytes; positive control): +36%

B1: IL1α: IL1α (Sigma) at 100 ng/mL used as a positive control (protein, UniProt P01583 113-271, looked up)
Interleukin-1 alpha: SAPFSFLSNVKYNFMRIIKYEFILNDALNQSIIRANDQYLTAAALHNLDEAVKFDMGAYKSSKDDAKITVILRISKTQLYVTAQDEDQPVLLKEMPEIPKTITGSETNLLFFWETHGTKNYFTSVAHPNLFIATKQDYWVCLAGGPPSITDFQILENQA
synthesis of KGF by fibroblasts (KGF; positive control, 100 ng/mL): increased
